# From the supplement of paper PMC10307832
# Assays:
# Experiment in all cases: relative viability (nuclei count vs DMSO), 5 days (fraction); higher = more cells survive
# [1] = compound: COc1cc2/c(=N/c3ccc(Br)cc3F)nc[nH]c2cc1OCC1CCN(C)CC1 [Vandetanib] + CS(=O)(=O)CCNCc1ccc(-c2ccc3ncnc(Nc4ccc(OCc5cccc(F)c5)c(Cl)c4)c3c2)o1 [Lapatinib] (partner 2 µM)
# In short: (§1)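 Lung cancer cell lines in 1536-well plates were dosed by pin tool the day after seeding, either with one drug alone or with a fixed anchor-drug dose plus five library-drug doses (not always all listed) in √10 steps. After 5 days, cells were fixed and their nuclei stained in one step (final 0.05% Triton X-100, 1% formaldehyde, 1 ug/ml Hoechst), then counted on 4× images. Relative viability is the nuclei count in treated wells divided by that in vehicle wells. Values are medians of duplicate plates.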
# [2] = compound: COc1cc2/c(=N/c3ccc(Br)cc3F)nc[nH]c2cc1OCC1CCN(C)CC1 [Vandetanib] + C[C@]1(O)C[C@@H](c2nc(-c3ccc4ccc(-c5ccccc5)nc4c3)c3c(N)nccn32)C1 [Linsitinib] (partner 1 µM)
# In short: as §1
# [3] = compound: C#Cc1cccc(Nc2ncnc3cc(OC)c(OCCCCCCC(=O)NO)cc23)c1 [CUDC-101] + COc1cccc2cc(-c3nc([C@H]4CC[C@H](C(=O)O)CC4)n4ncnc(N)c34)[nH]c12 [OSI-027] (partner 0.5 µM)
# In short: as §1
# [4] = compound: COc1cc(N2CCC(N3CCN(C)CC3)CC2)ccc1Nc1ncc(Cl)c(Nc2ccccc2S(=O)(=O)C(C)C)n1 [NVP-TAE684] + C[C@@H](Oc1cc(-c2cnn(C3CCNCC3)c2)cnc1N)c1c(Cl)ccc(F)c1Cl [Crizotinib] (partner 1 µM)
# In short: as §1
Cell Line,relative viability ([1]; first compound 0.02 µM),relative viability ([1]; first compound 0.06325 µM),relative viability ([1]; first compound 0.2 µM),relative viability ([1]; first compound 0.6325 µM),relative viability ([1]; first compound 2 µM),relative viability ([2]; first compound 0.02 µM),relative viability ([2]; first compound 0.06325 µM),relative viability ([2]; first compound 0.2 µM),relative viability ([2]; first compound 0.6325 µM),relative viability ([2]; first compound 2 µM),relative viability ([3]; first compound 0.01 µM),relative viability ([3]; first compound 0.03162 µM),relative viability ([3]; first compound 0.3162 µM),relative viability ([3]; first compound 1 µM),relative viability ([4]; first compound 0.2 µM),relative viability ([4]; first compound 0.6325 µM),relative viability ([4]; first compound 2 µM),relative viability ([3]; first compound 0.1 µM)
201T,0.968,1.03,1.03,0.994,1.05,1.08,0.936,0.989,0.944,1.01,0.801,0.703,0.752,0.687,0.972,1.01,0.889,–
A549,1.05,0.935,0.905,1.01,0.946,0.718,0.498,0.711,0.587,0.495,–,–,–,–,0.709,0.458,0.0727,–
A-427,0.968,1.02,1.14,1.01,0.74,1.05,1.05,1.11,1.04,1.12,0.464,0.486,0.473,0.308,–,–,0.512,0.351
ABC-1,1.48,1.29,1.12,1.37,0.961,1.03,0.805,1.02,0.849,0.598,0.601,0.461,0.373,0.142,1.06,0.893,0.296,0.454
BEN,0.75,0.686,0.677,0.742,0.812,0.851,0.82,0.869,0.868,0.793,0.336,0.259,0.281,0.292,0.713,0.837,0.678,0.348
CAL-12T,0.704,0.611,0.701,0.726,0.749,0.874,0.774,0.923,0.781,0.647,0.706,0.668,0.71,0.575,0.63,0.444,0.282,0.777
COR-L23,1.08,0.906,1.03,0.96,1.01,0.757,0.688,0.131,0.919,0.955,0.786,0.724,0.695,0.39,0.536,0.69,0.238,0.792
COR-L 105,0.322,0.307,0.325,0.366,0.356,0.891,0.877,0.976,0.54,0.444,0.717,0.73,0.61,0.204,0.677,0.461,0.388,0.399
Calu-6,1.08,0.966,1.12,0.94,1.07,0.939,0.861,0.911,0.975,0.876,–,–,–,–,0.73,0.687,0.285,–
ChaGo-K-1,–,–,–,–,–,–,–,–,–,–,0.527,0.579,0.538,0.43,1.09,1.11,0.713,0.541
EBC-1,0.212,0.204,0.19,0.211,0.183,0.742,0.893,0.958,0.885,0.925,–,–,–,–,0.208,0.174,0.155,–
EKVX,0.2,0.184,0.183,0.2,0.215,1.04,0.948,0.962,0.793,0.493,0.649,0.696,0.798,0.579,0.775,0.859,0.582,0.694
EMC-BAC-2,0.906,0.87,0.435,0.866,0.95,0.792,0.772,0.612,0.77,0.673,0.405,0.371,0.315,0.263,0.751,0.806,0.441,0.401
EPLC-272H,1.05,0.791,0.933,1.02,0.168,1.21,0.971,1.11,1.13,1.18,0.266,0.317,0.244,0.187,0.898,–,0.873,0.238
H3255,0.26,0.231,0.244,0.213,0.202,1.1,0.9,0.949,0.654,0.181,0.571,0.556,0.395,0.204,0.988,0.646,0.7,–
HARA,0.676,0.558,0.588,0.773,0.764,1.03,0.749,1.04,0.985,0.989,0.509,0.442,0.348,0.171,1.07,1.02,0.508,0.322
HCC-15,0.824,0.772,0.798,0.878,0.937,0.816,0.804,0.91,0.864,0.849,0.697,0.696,0.73,0.584,0.806,0.792,0.319,0.674
HCC-44,0.917,1,1.06,0.968,0.996,0.642,0.64,0.753,0.724,0.688,0.527,0.685,0.586,0.295,0.782,0.868,0.489,0.587
HCC-78,1.03,0.739,0.915,0.913,0.738,0.414,0.438,0.567,0.579,0.337,0.291,0.352,0.335,0.218,0.287,0.296,0.286,0.362
HCC-366,0.931,0.978,1.18,1.18,1.09,0.644,0.488,0.584,0.636,0.526,0.914,0.768,1.15,0.815,0.923,0.648,0.226,1.01
HCC-827,0.195,0.18,0.183,0.181,0.185,0.922,0.941,0.929,0.367,0.198,0.813,0.46,0.144,0.136,0.914,0.907,0.868,0.177
HOP-62,0.81,0.923,1.07,0.932,0.892,1.04,0.965,0.926,1.05,0.977,0.862,0.842,0.924,0.567,–,0.997,0.823,0.896

Cell Line,relative viability ([1]; first compound 0.02 µM),relative viability ([1]; first compound 0.06325 µM),relative viability ([1]; first compound 0.2 µM),relative viability ([1]; first compound 0.6325 µM),relative viability ([1]; first compound 2 µM),relative viability ([2]; first compound 0.02 µM),relative viability ([2]; first compound 0.06325 µM),relative viability ([2]; first compound 0.2 µM),relative viability ([2]; first compound 0.6325 µM),relative viability ([2]; first compound 2 µM),relative viability ([3]; first compound 0.01 µM),relative viability ([3]; first compound 0.03162 µM),relative viability ([3]; first compound 0.3162 µM),relative viability ([3]; first compound 1 µM),relative viability ([4]; first compound 0.2 µM),relative viability ([4]; first compound 0.6325 µM),relative viability ([4]; first compound 2 µM),relative viability ([3]; first compound 0.1 µM)
IA-LM,0.762,0.737,0.953,0.798,0.987,0.616,0.567,0.616,0.593,0.673,–,–,–,–,0.626,0.692,0.62,–
LC-2-ad,0.896,0.949,0.506,0.783,0.711,0.818,0.787,0.841,0.746,0.417,0.823,1.04,0.827,0.339,0.419,0.433,0.315,0.985
LCLC-97TM1,0.864,1.05,0.909,0.841,0.8,0.197,0.171,0.171,0.171,0.136,0.635,0.571,0.548,0.273,0.216,0.336,0.0982,0.445
LCLC-103H,–,–,–,–,–,1.09,1,1.23,0.929,1.03,0.45,0.42,0.435,0.433,1.16,1.08,1,0.485
LK-2,0.999,0.964,0.716,1.05,0.636,1.08,0.513,0.909,0.9,0.319,0.217,0.212,0.203,0.15,0.228,0.223,0.203,0.201
LOU-NH91,0.739,0.761,0.783,0.764,0.799,0.954,0.733,0.679,0.685,0.629,0.753,0.633,0.514,0.443,0.7,0.725,0.592,0.523
LU99A,0.973,0.869,1.01,0.828,1.04,0.487,0.529,0.599,0.522,0.55,0.297,0.305,0.289,0.239,0.651,0.576,0.262,0.302
LXF-289,0.899,0.842,0.89,0.871,0.887,0.949,0.942,0.957,0.971,0.967,0.751,0.885,0.918,0.57,0.852,0.791,0.706,0.766
NCI-H23,1.07,0.971,0.969,1.28,0.962,0.685,0.531,0.519,0.57,0.425,0.71,0.647,0.607,0.509,0.463,0.451,0.254,0.631
NCI-H441,–,–,–,–,–,0.597,0.538,0.498,0.592,0.472,0.622,0.625,0.803,0.399,0.661,0.659,0.315,0.621
NCI-H522,–,–,–,–,–,–,–,–,–,–,0.638,0.64,0.703,0.549,–,–,–,0.67
NCI-H1299,0.965,0.95,0.892,0.968,0.948,0.912,0.916,0.997,0.957,1,–,–,–,–,1.01,0.959,0.623,–
NCI-H1395,0.963,0.875,1.03,0.936,0.864,1.1,1.09,0.934,0.968,1.18,0.746,0.629,0.727,0.508,–,–,–,0.628
NCI-H1623,–,–,–,–,–,–,–,–,–,–,0.452,0.441,0.329,0.239,–,–,–,0.33
NCI-H1648,–,–,–,–,–,–,–,–,–,–,0.265,–,0.266,0.254,–,–,–,0.243
NCI-H1650,0.704,0.734,–,0.988,0.765,–,–,–,–,–,0.661,0.531,0.577,0.231,0.899,0.89,1,0.517
NCI-H1703,1.13,–,1.24,0.932,0.417,0.543,0.73,1.14,0.637,0.535,–,–,–,–,0.743,0.516,0.144,–
NCI-H1793,0.682,0.794,0.504,0.816,0.723,0.87,0.74,0.819,0.897,0.587,0.291,0.255,0.25,0.218,–,–,–,0.255
NCI-H2170,0.264,0.253,0.225,0.271,0.269,–,–,–,–,–,0.697,0.765,0.686,0.619,1.31,1.15,0.996,0.605
NCI-H2342,–,–,–,–,–,–,–,–,–,–,0.579,0.607,0.673,0.725,–,–,–,0.59
SW 900,–,–,–,–,–,–,–,–,–,–,0.577,0.42,0.577,0.662,–,–,–,0.562
